Values of other authors, collected in PMC10950972, “Relative bioavailability of fedratinib through various alternative oral administration methods in healthy adults” (Cancer Chemotherapy and Pharmacology, 2023).

Tests used:
[1] = parameters: method as in PMID 34480861; conditions: patients; compared with healthy adults and patients with rheumatoid arthritis; cited from earlier work
[2] = parameters: method as in PMID 15598479; conditions: cited from earlier work

Structure (SMILES)	PK after solution of crushed tablets via nasogastric tube vs PK previously reported [1]	Differences in bioavailability and PK parameters, intact capsules vs nasogastric administration [2]
CCS(=O)(=O)N1CC(CC#N)(n2cc(-c3ncnc4[nH]ccc34)cn2)C1 [baricitinib]	consistent with PK results previously reported	
COc1cc2ncnc(Nc3ccc(F)c(Cl)c3)c2cc1OCCCN1CCOCC1 [gefitinib]		no clinically significant differences
